# Patent US10065990B2, “Cyclic peptide compound, and preparation method, pharmaceutical composition and use thereof” (HANGZHOU GUANYU BIO-MEDICAL CO., LTD, priority 2013, dated 2018)
# pIC50: −log10 of the molar value. Read-outs that look alike come from different tables or passages of the source.
# Legend:
# HDAC8 = molecular target: T1, HDAC8 (Homo sapiens, UniProt Q9BY41); experiment: HDAC biochemical activity measurement (fluorescent substrate deacetylation); settings: 37° C. 30 minutes
# T1 sequence (Q9BY41 1-377): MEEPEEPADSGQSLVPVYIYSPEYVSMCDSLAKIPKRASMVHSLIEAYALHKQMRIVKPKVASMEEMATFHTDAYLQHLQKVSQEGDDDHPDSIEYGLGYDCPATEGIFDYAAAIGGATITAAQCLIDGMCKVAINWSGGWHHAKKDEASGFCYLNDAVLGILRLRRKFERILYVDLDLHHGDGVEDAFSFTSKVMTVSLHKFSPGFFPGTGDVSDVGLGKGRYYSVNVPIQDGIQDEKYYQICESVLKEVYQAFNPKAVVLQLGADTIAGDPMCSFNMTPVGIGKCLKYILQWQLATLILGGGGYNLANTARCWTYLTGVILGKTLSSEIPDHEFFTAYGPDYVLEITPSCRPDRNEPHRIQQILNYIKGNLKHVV
# [1] = tested on: Bel-7402 (human hepatoma cells); experiment: MTT cancer cell growth inhibition; format: cell-based; settings: Homo sapiens, Bel-7402, 72 h, MTT, 72 hours incubation, Bel-7402 cells; read-out: GI50 Bel-7402
# Method in brief: (§1)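 Seed 1500 cells/well, incubate overnight. Add compound, 10^−5 to 10^−10 M final, n=3; culture 72 h, 37° C., 5% CO2. Add MTT, 4 h. Discard supernatant, dissolve in DMSO. Read 570 nm; calculate viability and GI50.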
# [2] = tested on: Huh-7 (human hepatoma cells); experiment: MTT cancer cell growth inhibition; format: cell-based; settings: Homo sapiens, Huh-7, 72 h, MTT, 72 hours incubation, Huh-7 cells; read-out: GI50 Huh-7
# Method in brief: as §1
# [3] = tested on: Hela (human cervical cancer cells); experiment: MTT cancer cell growth inhibition; format: cell-based; settings: Homo sapiens, HeLa, 72 h, MTT
# Method in brief: as §1
# [4] = tested on: DU145 (human prostate cancer cells); experiment: MTT cancer cell growth inhibition; format: cell-based; settings: Homo sapiens, DU-145, 72 h, MTT
# Method in brief: as §1
# [5] = tested on: SGC-7901 (human gastric cancer cells); experiment: MTT cancer cell growth inhibition; format: cell-based; settings: Homo sapiens, SGC-7901, 72 h, MTT, 72 hours incubation, SGC-7901 cells; read-out: GI50 SGC-7901
# Method in brief: as §1
# [6] = tested on: N-87 (human gastric cancer cells); experiment: MTT cancer cell growth inhibition; format: cell-based; settings: Homo sapiens, 72 h, MTT, 72 hours incubation, N-87 cells; read-out: GI50 N-87
# Method in brief: as §1
# [7] = tested on: A549 (human lung cancer cells); experiment: MTT cancer cell growth inhibition; format: cell-based; settings: Homo sapiens, A549, 72 h, MTT
# Method in brief: as §1
# [8] = tested on: BGC-823 (human gastric cancer cells); experiment: MTT cancer cell growth inhibition; format: cell-based; settings: Homo sapiens, BGC-823, 72 h, MTT
# Method in brief: as §1
# [9] = tested on: U937 (human leukemia cells); experiment: MTT cancer cell growth inhibition; format: cell-based; settings: Homo sapiens, U-937, 72 h, MTT
# Method in brief: as §1
# [10] = tested on: MDA-MB-231 (breast cancer cells); experiment: MTT cancer cell growth inhibition; format: cell-based; settings: Homo sapiens, MDA-MB-231, 72 h, read-out: GI50 MDA-MB-231, MTT, 72 hours incubation, MDA-MB-231 cells
# Method in brief: as §1
# [11] = tested on: MOLT-4 (human acute lymphoblastic leukemia cells); experiment: MTT cancer cell growth inhibition; format: cell-based; settings: Homo sapiens, MOLT-4, 72 h, MTT
# Method in brief: as §1
# [12] = tested on: MCF-7 (human breast cancer cells); experiment: MTT cancer cell growth inhibition; format: cell-based; settings: Homo sapiens, MCF7, 72 h
# Method in brief: as §1
# [13] = tested on: HCC827 (human non-small cell lung cancer cells); experiment: MTT cancer cell growth inhibition; format: cell-based; settings: Homo sapiens, HCC827, 72 h, MTT, 72 hours incubation, HCC827 cells; read-out: GI50 HCC827
# Method in brief: as §1
# [14] = tested on: HT1080 (human fibrosarcoma cells); experiment: MTT cancer cell growth inhibition; format: cell-based; settings: Homo sapiens, HT-1080, 72 h, MTT
# Method in brief: as §1
# [15] = tested on: PANC-1 (Pac-1, human pancreatic cancer cells); experiment: MTT cancer cell growth inhibition; format: cell-based; settings: Homo sapiens, PANC-1, 72 h, MTT
# Method in brief: as §1
# HDAC11 = molecular target: T2, HDAC11 (Homo sapiens, UniProt Q96DB2); experiment: HDAC biochemical activity measurement (fluorescent substrate deacetylation);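 further: HDAC11 enzyme acting on an acetyl-lysine fluorogenic substrate, then a developer frees the fluorophore, read at excitation 360 nm and emission 460 nm, IC50 over a compound dilution series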
# T2 sequence (Q96DB2 1-347): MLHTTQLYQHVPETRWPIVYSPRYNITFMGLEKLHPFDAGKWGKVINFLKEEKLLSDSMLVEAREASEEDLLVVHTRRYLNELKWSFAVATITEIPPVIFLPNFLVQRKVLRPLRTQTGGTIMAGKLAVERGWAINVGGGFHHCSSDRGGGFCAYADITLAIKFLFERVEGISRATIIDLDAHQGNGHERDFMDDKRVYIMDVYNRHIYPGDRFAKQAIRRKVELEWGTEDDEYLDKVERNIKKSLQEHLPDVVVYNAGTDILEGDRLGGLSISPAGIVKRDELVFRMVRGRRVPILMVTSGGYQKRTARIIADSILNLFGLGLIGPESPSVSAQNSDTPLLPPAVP
# HDAC1 = HDAC1 (Homo sapiens, UniProt Q13547); experiment: as above
# [16] = Hela cells, 72 hours incubation, read-out: GI50 Hela
# [17] = 72 hours, present invention, read-out: GI50 Hela, a
# [18] = 72 hours, present invention, read-out: GI50 Du145, a
# [19] = A549 cells, 72 hours incubation, read-out: GI50 A54
# [20] = 72 hours, present invention, read-out: GI50 A549, a
# [21] = BGC-823 cells, 72 hours incubation, read-out: GI50 BG
# [22] = 72 hours, present invention, read-out: GI50 BGC823, a
# [23] = 72 hours, present invention, read-out: GI50 U937, a
# [24] = 72 hours, present invention, read-out: GI50 Molt-4, a
# [25] = 72 hours, present invention, read-out: GI50 MCF7, a
# [26] = MCF-7 cells, 72 hours incubation, read-out: GI50 MCF
# [27] = HT1080 cells, 72 hours incubation, read-out: GI50 HT1
# [28] = 72 hours, present invention, read-out: GI50 HT1080, a
# [29] = 72 hours, present invention, read-out: GI50 PANC-1, a
# [30] = PANC-1 cells, 72 hours incubation, read-out: GI50 PAN
# [31] = HDAC1, 37° C. 30 minutes, read-out: IC50 HDAC1
# [32] = Table 2, read-out: IC50 HDAC1, a (compounds of the present invention)
# [33] = DU145 cells, 72 hours incubation, read-out: GI50 Du1
# [34] = U937 cells, 72 hours incubation, read-out: GI50 U93
# [35] = MOLT-4 cells, 72 hours incubation, read-out: GI50 Mol
# [36] = 72 hours incubation, read-out: GI50 Hela
# [37] = 72 hours incubation, read-out: GI50 Du1
# [38] = 72 hours incubation, read-out: GI50 A54
# [39] = 72 hours incubation, read-out: GI50 BG
# [40] = 72 hours incubation, read-out: GI50 U93
# [41] = 72 hours incubation, read-out: GI50 Mol
# [42] = 72 hours incubation, read-out: GI50 MCF
# [43] = 72 hours incubation, read-out: GI50 HT1
# [44] = 72 hours incubation, read-out: GI50 PAN
# [45] = read-out: IC50 HDAC11, HDAC11, 37° C. 30 minutes
# 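Wherever IC50 HDAC1 is given: fluorogenic acetyl-lysine substrate (20 µM) deacetylated by HDAC1, then developer releases fluorophore read at 360 nm excitation and 460 nm emission, inhibitor incubated 30 min at 37 °C.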
# 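Wherever IC50 HDAC1, C (six-membered ring with substituents) is given: fluorogenic acetyl-lysine substrate (20 µM) deacetylated by HDAC1, then developer releases fluorophore read at 360 nm excitation and 460 nm emission, inhibitor incubated 30 min at 37 °C.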
# 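Wherever IC50 HDAC1, D (non-substituent) is given: fluorogenic acetyl-lysine substrate (20 µM) deacetylated by HDAC1, then developer releases fluorophore read at 360 nm excitation and 460 nm emission, inhibitor incubated 30 min at 37 °C.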
# 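Wherever IC50 HDAC1, a (compounds of the present invention) is given: fluorogenic acetyl-lysine substrate (20 µM) deacetylated by HDAC1, then developer releases fluorophore read at 360 nm excitation and 460 nm emission, inhibitor incubated 30 min at 37 °C.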
# Sequence of HDAC1 (Q13547 whole entry, species assumed): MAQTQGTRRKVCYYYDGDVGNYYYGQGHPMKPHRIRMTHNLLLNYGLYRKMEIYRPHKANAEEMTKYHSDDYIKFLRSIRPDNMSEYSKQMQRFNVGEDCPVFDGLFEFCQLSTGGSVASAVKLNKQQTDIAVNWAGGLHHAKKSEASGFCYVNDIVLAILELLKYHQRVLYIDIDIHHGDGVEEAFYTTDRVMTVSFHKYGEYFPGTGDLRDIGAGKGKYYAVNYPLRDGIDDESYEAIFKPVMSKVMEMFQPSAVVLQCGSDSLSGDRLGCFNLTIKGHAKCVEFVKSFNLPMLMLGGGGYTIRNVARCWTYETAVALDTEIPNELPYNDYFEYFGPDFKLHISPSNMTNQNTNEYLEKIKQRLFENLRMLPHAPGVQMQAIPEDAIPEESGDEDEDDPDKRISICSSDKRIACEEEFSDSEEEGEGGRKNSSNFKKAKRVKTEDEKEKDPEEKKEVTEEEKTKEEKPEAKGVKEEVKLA
pIC50 (HDAC8),GI50 [1],GI50 [2],"GI50 [3, 16]","GI50 [3, 17]","GI50 [4, 18]",GI50 [5],GI50 [6],"GI50 [7, 19]","GI50 [7, 20]","GI50 [8, 21]","GI50 [8, 22]","GI50 [9, 23]",GI50 [10],"GI50 [11, 24]","GI50 [12, 25]","GI50 [12, 26]",GI50 [13],"GI50 [14, 27]",pIC50 (HDAC1; [31]),Structure (SMILES),also measured
7.48,47 nM,64 nM,11 nM,11 nM,3 nM,63 nM,57 nM,110 nM,110 nM,100 nM,100 nM,7 nM,29 nM,3 nM,28 nM,20 nM,34 nM,30 nM,7.55,C/C=C1\NC(=O)c2cccc(n2)CNC(=O)C[C@@H](/C=C/CCSC(=O)CCCCCCC)OC(=O)[C@H](CC(C)C)NC1=O [Compound 241],"GI50 [14, 28]: 34 nM; GI50 [15, 29]: 170 nM; GI50 [15, 30]: 170 nM; pIC50 (HDAC11): 7.16; pIC50 (HDAC1; [32]): > 7.52"
6.99,87 nM,31 nM,530 nM,530 nM,130 nM,63 nM,53 nM,110 nM,110 nM,770 nM,770 nM,840 nM,65 nM,350 nM,41 nM,40 nM,96 nM,650 nM,7.18,CCCCCCCC(=O)SCC/C=C/[C@@H]1CC(=O)NCc2cccc(n2)C(=O)NC(CC)C(=O)N[C@@H](C(C)C)C(=O)O1 (some centres unmarked) [Compound 245],"GI50 [4, 33]: 130 nM; GI50 [9, 34]: 840 nM; GI50 [11, 35]: 350 nM; GI50 [14, 28]: 650 nM; GI50 [15, 29]: 140 nM; GI50 [15, 30]: 140 nM; pIC50 (HDAC11; [45]): 6.90; pIC50 (HDAC1; [32]): > 7.00"
7.15,76 nM,43 nM,,120 nM,33 nM,35 nM,37 nM,,430 nM,,410 nM,35 nM,86 nM,17 nM,50 nM,,23 nM,,7.54,C/C=C1\NC(=O)c2cccc(n2)CNC(=O)C[C@@H](/C=C/CCSC(=O)CCCCCCC)OC(=O)[C@H](C)NC1=O [Compound 11],"GI50 [3, 36]: 120 nM; GI50 [4, 37]: 30 nM; GI50 [7, 38]: 430 nM; GI50 [8, 39]: 410 nM; GI50 [9, 40]: 30 nM; GI50 [11, 41]: 10 nM; GI50 [12, 42]: 50 nM; GI50 [14, 43]: 140 nM; GI50 [14, 28]: 140 nM; GI50 [15, 44]: 60 nM; GI50 [15, 29]: 60 nM; pIC50 (HDAC11; [45]): 7.09; pIC50 (HDAC1; [32]): > 7.52; pIC50 (HDAC1; Table 3, read-out: IC50 HDAC1, D (non-substituent)): 7.54"

# Second part, the molecule before the results:
Structure (SMILES),pIC50 (HDAC8),GI50 [1],GI50 [2],"GI50 [3, 16]","GI50 [3, 17]","GI50 [4, 18]",GI50 [5],GI50 [6],"GI50 [7, 19]","GI50 [7, 20]","GI50 [8, 21]","GI50 [8, 22]","GI50 [9, 23]",GI50 [10],"GI50 [11, 24]","GI50 [12, 25]","GI50 [12, 26]",GI50 [13],"GI50 [14, 27]",pIC50 (HDAC1; [31]),also measured
C=C1NC(=O)c2cc(SC)cc(n2)CNC(=O)C[C@@H](/C=C/CCSC(C)=O)OC(=O)[C@H](C(C)C)NC1=O [Compound 205],7.21,56 nM,47 nM,70 nM,,,59 nM,49 nM,50 nM,,50 nM,,,39 nM,,,70 nM,62 nM,10 nM,7.04,"GI50 [4, 33]: 60 nM; GI50 [9, 34]: 40 nM; GI50 [11, 35]: 50 nM; GI50 [15, 30]: 30 nM; pIC50 (HDAC11): 7.11"
C/C=C1\NC(=O)c2nc(ccc2F)CNC(=O)C[C@@H](/C=C/CCSC(=O)CC)OC(=O)[C@H](C(C)C)NC1=O [Example 45],7.60,61 nM,37 nM,,,,43 nM,67 nM,,,,,,37 nM,,,,61 nM,,7.19,"GI50 [3, 36]: 90 nM; GI50 [4, 37]: 30 nM; GI50 [7, 38]: 40 nM; GI50 [8, 39]: 50 nM; GI50 [9, 40]: 30 nM; GI50 [11, 41]: 30 nM; GI50 [12, 42]: 50 nM; GI50 [14, 43]: 60 nM; GI50 [15, 44]: 60 nM; pIC50 (HDAC11): 7.04"
C/C=C1\NC(=O)c2cc(F)cc(n2)CNC(=O)C[C@@H](/C=C/CCSC=O)OC(=O)[C@H](C(C)C)NC1=O [Compound 52],7.28,91 nM,31 nM,,,,51 nM,53 nM,,,,,,31 nM,,,,91 nM,,7.35,"GI50 [3, 36]: 80 nM; GI50 [4, 37]: 20 nM; GI50 [7, 38]: 50 nM; GI50 [8, 39]: 50 nM; GI50 [9, 40]: 60 nM; GI50 [11, 41]: 30 nM; GI50 [12, 42]: 60 nM; GI50 [14, 43]: 90 nM; GI50 [15, 44]: 90 nM; pIC50 (HDAC11; [45]): 6.97; pIC50 (HDAC1; Table 3, column C, read-out: IC50 HDAC1, C (six-membered ring with substituents)): 7.35"
